In brackets after ≈: the same amount, converted by molar mass.

Common to all, as to type: functional
The subject of assay [1] is Escherichia coli. As to the kind of experiment: Antimicrobial activity against Escherichia coli.
The subject of assay [2] is Bacillus subtilis. The assay can be described thus: Antimicrobial activity against Bacillus subtilis.
In assay [3] the test system is Pseudomonas aeruginosa. As to the kind of experiment: Antimicrobial activity against Pseudomonas aeruginosa.
The subject of assay [4] is Staphylococcus aureus. The assay can be described thus: Antimicrobial activity against Staphylococcus aureus.
Assay [5] has as its system Candida albicans. As to the kind of experiment: Antifungal activity against Candida albicans.
Assay [6] has as its system Aspergillus niger. The assay can be described thus: Antifungal activity against Aspergillus niger.
Assay [7] concerns Staphylococcus aureus. The assay can be described thus: Antimicrobial activity against Staphylococcus aureus assessed as zone of inhibition at 250 ug/ml. The settings on record: read-out: IZ.
For assay [8], the system named is Bacillus cereus. As to the kind of experiment: Antimicrobial activity against Bacillus cereus assessed as zone of inhibition at 250 ug/ml. The settings on record: read-out: IZ.
For assay [9], the system named is Escherichia coli. As to the kind of experiment: Antimicrobial activity against Escherichia coli assessed as zone of inhibition at 250 ug/ml. Conditions: read-out: IZ.
The subject of assay [10] is Pseudomonas aeruginosa. The assay can be described thus: Antimicrobial activity against Pseudomonas aeruginosa assessed as zone of inhibition at 250 ug/ml. The settings on record: read-out: IZ.
Assay [11] concerns Candida albicans. As to the kind of experiment: Antifungal activity against Candida albicans assessed as zone of inhibition at 250 ug/ml. Conditions: read-out: IZ.
Assay [12] relates to Aspergillus niger. The assay can be described thus: Antifungal activity against Aspergillus niger assessed as zone of inhibition at 250 ug/ml. Conditions: read-out: IZ.

One may read the MIC as the lowest concentration found to suppress growth. The low end stands for a more susceptible organism, the high end for a less susceptible organism. Take `O=C1S/C(=C\c2ccccc2)C(=O)N1Cc1ccc(-c2ccccc2-c2nnn[nH]2)cc1`: the MIC in assay [1] and in assay [2] was 7.75 to 35.4 µg/mL (≈ 17.6 to 80.6 µM) in each case.

Take `Cc1ccc2cc(C3CC(c4ccc(Cl)cc4)=NN3C(N)=S)c3nnnn3c2c1` (stereo not drawn): the MIC in assay [1], in assay [3], in [4], in assay [5] and in assay [6] was 3.12 to 100 µg/mL (≈ 7.41 to 237 µM) in each case.

Consider `COc1ccc(/C=C2\SC(=O)N(Cc3ccc(-c4ccccc4-c4nnn[nH]4)cc3)C2=O)c(OC)c1`, for which the MIC in assay [1] and in assay [2] was 7.75 to 35.4 µg/mL (≈ 15.5 to 70.9 µM) each time.

For `O=c1c(OCc2nnn[nH]2)c(-c2ccc(F)cc2)oc2cc(Cl)ccc12`, the MIC in [1], in assay [3], in assay [4] and in assay [2] was 50 to 400 µg/mL (≈ 134 to 1070 µM) each time.

As to `Cc1ccc2cc(/C=C/C(=O)c3cccs3)c3nnnn3c2c1`, the MIC in assay [1], in assay [3], in assay [4], in assay [5] and in assay [6] was 6.25 to 100 µg/mL (≈ 19.5 to 312 µM) each time.

Regarding `c1cc(-c2nnn[nH]2)cc(-c2nnn[nH]2)c1`, the MIC in [1], in assay [3] and in assay [4] was 125 to 1000 µg/mL (≈ 584 to 4670 µM) each time.

`Cc1ccc2c(c1)cc(/C=C/C(=O)c1ccc(Cl)cc1)c1nnnn12`: the MIC in assay [1], in assay [3], in [4], in [5] and in assay [6] was 6.25 to 100 µg/mL (≈ 17.9 to 287 µM) throughout.

On to `Cc1ccc2c(c1)cc(C1CC(c3ccc(Cl)cc3)=NN1C(N)=S)c1nnnn12` (stereo not drawn), for which the MIC in [1], in assay [3], in [4], in [5] and in assay [6] was 3.12 to 100 µg/mL (≈ 7.41 to 237 µM) throughout.

On to `Cc1ccc2c(c1)cc(/C=C/C(=O)c1ccccn1)c1nnnn12`, for which the MIC in assay [1], in [3], in [4], in [5] and in [6] was 6.25 to 100 µg/mL (≈ 19.8 to 317 µM) throughout.

Turning to `Cc1ccc2c(c1)cc(C1CC(c3ccccn3)=NN1C(N)=S)c1nnnn12` (stereo not drawn), the MIC in [1], in assay [3], in assay [4], in assay [5] and in assay [6] was 3.12 to 100 µg/mL (≈ 8.04 to 257 µM) in each case.

On to `Cc1ccc2c(=O)c(OCc3nnn[nH]3)c(-c3ccc(F)cc3)oc2c1`, for which the MIC in assay [1], in [3], in assay [4] and in assay [2] was 50 to 400 µg/mL (≈ 142 to 1140 µM) in each case.

For the compound `O=C1S/C(=C\c2ccc(F)cc2)C(=O)N1Cc1ccc(-c2ccccc2-c2nnn[nH]2)cc1`, the MIC in [1] and in assay [2] was 7.75 to 35.4 µg/mL (≈ 16.9 to 77.4 µM) in each case.

On to `Fc1ccc2c(c1)sc1nc(-c3cc4ccccc4n4nnnc34)c(NCCc3ccccc3)n12`, for which the MIC in [1], in [3] and in assay [4] was above 320 µg/mL throughout.

Regarding `Cc1ccc2c(c1)cc(C1CC(c3ccccc3)=NN1C(N)=S)c1nnnn12` (stereo not drawn), the MIC in assay [1], in assay [3], in assay [4], in assay [5] and in assay [6] was 3.12 to 100 µg/mL (≈ 8.07 to 258 µM) in each case.

As to `c1ccc(C(c2ccccc2)(c2ccccc2)n2nnnc2-c2ccccc2-c2ccc(CNn3cnnc3)cc2)cc1`, the figures for the MIC in assay [1] and in assay [2] were 22.4 µg/mL (≈ 40 µM) and 24.8 µg/mL (≈ 44.3 µM), respectively.

For `Cc1ccc2c(c1)cc(/C=C/C(=O)c1ccccc1)c1nnnn12`, the MIC in assay [1], in [3], in assay [4], in assay [5] and in assay [6] was 6.25 to 100 µg/mL (≈ 19.9 to 318 µM) each time.

For `COc1ccc(Nc2c(-c3cc4ccccc4n4nnnc34)nc3sccn23)cc1`, the MIC in [1], in assay [3] and in [4] was above 320 µg/mL each time.

Take `COc1cc(/C=C2\SC(=O)N(Cc3ccc(-c4ccccc4-c4nnn[nH]4)cc3)C2=O)cc(OC)c1OC`: the minimal inhibitory concentration (MIC) in assay [1] and in assay [2] was 7.75 to 35.4 µg/mL (≈ 14.6 to 66.9 µM) throughout.

For the compound `O=C1S/C(=C\c2ccccc2Cl)C(=O)N1Cc1ccc(-c2ccccc2-c2nnn[nH]2)cc1`, the MIC in assay [1] and in assay [2] was 7.75 to 35.4 µg/mL (≈ 16.4 to 74.7 µM) each time.

On to `Cc1ccc2c(c1)cc(C1CC(c3cccs3)=NN1C(N)=S)c1nnnn12` (stereo not drawn), for which the minimum inhibitory concentration (MIC) in assay [1], in [3], in [4], in assay [5] and in assay [6] was 3.12 to 100 µg/mL (≈ 7.94 to 254 µM) each time.

In the case of `c1ccc(CCNc2c(-c3cc4ccccc4n4nnnc34)nc3sccn23)cc1`, the MIC in [1], in [3] and in assay [4] was above 320 µg/mL in each case.

With `CC(=O)N1N=C(Cn2cc(-c3nn(-c4ccncc4)cc3-c3nnnn3-c3ccccc3)c3cc(Cl)ccc32)OC1(C)c1ccc(C(F)(F)F)cc1` (stereo not drawn), the zone of inhibition at 250 µg/mL in assay [7], in [8], in [9], in [10], in [11] and in assay [12] was 8 to 20 mm each time.

Take `Cc1ccc2c(c1)cc(/C=C/C(=O)c1cccs1)c1nnnn12`: the MIC in assay [1], in assay [3], in assay [4], in assay [5] and in [6] was 6.25 to 100 µg/mL (≈ 19.5 to 312 µM) throughout.

Turning to `COc1ccc(Nc2c(-c3cc4ccccc4n4nnnc34)nc3sc(C#N)cn23)cc1`, the MIC in [1], in [3] and in assay [4] was above 320 µg/mL in each case.

Consider `Cc1cccc2oc(-c3ccc(F)cc3)c(OCc3nnn[nH]3)c(=O)c12`, for which the MIC in [1], in assay [3], in assay [4] and in assay [2] was 50 to 400 µg/mL (≈ 142 to 1140 µM) each time.

In the case of `CC(C)(C)Nc1c(-c2cc3ccccc3n3nnnc23)nc2sccn12`, the MIC in assay [1], in assay [3] and in assay [4] was above 320 µg/mL in each case.

Consider `COc1cc(/C=C2\SC(=O)N(Cc3ccc(-c4ccccc4-c4nnn[nH]4)cc3)C2=O)cc(OC)c1`, for which the MIC in [1] and in [2] was 7.75 to 35.4 µg/mL (≈ 15.5 to 70.9 µM) each time.

Regarding `N#Cc1cn2c(NCCc3ccccc3)c(-c3cc4ccccc4n4nnnc34)nc2s1`, the MIC in assay [1], in [3] and in assay [4] was above 320 µg/mL each time.

As for `Cc1ccc2cc(C3CC(c4ccccc4)=NN3C(N)=S)c3nnnn3c2c1` (stereo not drawn), the MIC in assay [1], in assay [3], in assay [4], in assay [5] and in [6] was 3.12 to 100 µg/mL (≈ 8.07 to 258 µM) each time.

As for `Cc1ccc2cc(/C=C/C(=O)c3ccccc3)c3nnnn3c2c1`, the MIC in assay [1], in [3], in assay [4], in [5] and in assay [6] was 6.25 to 100 µg/mL (≈ 19.9 to 318 µM) throughout.

For the compound `Cc1ccc2cc(C3CC(c4ccccn4)=NN3C(N)=S)c3nnnn3c2c1` (stereo not drawn), the MIC in assay [1], in assay [3], in assay [4], in assay [5] and in [6] was 3.12 to 100 µg/mL (≈ 8.04 to 257 µM) in each case.

Turning to `c1ccc2c(c1)cc(-c1nc3sccn3c1NC1CCCCC1)c1nnnn12`, the MIC in assay [1], in assay [3] and in assay [4] was above 320 µg/mL each time.

In the case of `COc1ccc(C(=O)/C=C/c2cc3ccc(C)cc3n3nnnc23)cc1`, the MIC in [1], in [3], in assay [4], in assay [5] and in assay [6] was 6.25 to 100 µg/mL (≈ 18.1 to 290 µM) each time.

Consider `CC(C)(C)Nc1c(-c2cc3ccccc3n3nnnc23)nc2sc(C#N)cn12`, for which the MIC in assay [1], in assay [3] and in assay [4] was above 320 µg/mL throughout.

As for `O=c1c(OCc2nnn[nH]2)c(-c2ccc(F)cc2)oc2cc(Cl)cc(Cl)c12`, the MIC in assay [1], in assay [3], in assay [4] and in [2] was 50 to 400 µg/mL (≈ 123 to 982 µM) each time.

As to `N#Cc1cn2c(NC3CCCCC3)c(-c3cc4ccccc4n4nnnc34)nc2s1`, the minimal inhibitory concentration (MIC) in assay [1], in [3] and in [4] was above 320 µg/mL in each case.

For `COc1ccc(/C=C2\SC(=O)N(Cc3ccc(-c4ccccc4-c4nnn[nH]4)cc3)C2=O)cc1OC`, the MIC in assay [1] and in assay [2] was 7.75 to 35.4 µg/mL (≈ 15.5 to 70.9 µM) each time.

Consider `O=C1S/C(=C\c2ccc(Cl)cc2)C(=O)N1Cc1ccc(-c2ccccc2-c2nnn[nH]2)cc1`, for which the MIC in assay [1] and in assay [2] was 7.75 to 35.4 µg/mL (≈ 16.4 to 74.7 µM) each time.

As for `Cc1ccc2cc(C3CC(c4cccs4)=NN3C(N)=S)c3nnnn3c2c1` (stereo not drawn), the MIC in assay [1], in [3], in assay [4], in [5] and in [6] was 3.12 to 100 µg/mL (≈ 7.94 to 254 µM) in each case.

For `Cc1ccc2cc(/C=C/C(=O)c3ccccn3)c3nnnn3c2c1`, the MIC in assay [1], in assay [3], in assay [4], in [5] and in [6] was 6.25 to 100 µg/mL (≈ 19.8 to 317 µM) each time.

`COc1ccc(C(=O)/C=C/c2cc3cc(C)ccc3n3nnnc23)cc1`: the MIC in [1], in assay [3], in [4], in assay [5] and in assay [6] was 6.25 to 100 µg/mL (≈ 18.1 to 290 µM) each time.

As to `Cc1ccc2cc(/C=C/C(=O)c3ccc(Cl)cc3)c3nnnn3c2c1`, the minimum inhibitory concentration (MIC) in [1], in assay [3], in assay [4], in assay [5] and in assay [6] was 6.25 to 100 µg/mL (≈ 17.9 to 287 µM) throughout.

In the case of `COc1cc(Cc2cnc(N)nc2N)cc(OC)c1OC` [TRIMETHOPRIM], the MIC in [1] is 125 µg/mL (≈ 431 µM); in assay [3], 500 µg/mL (≈ 1720 µM); in assay [4], 250 µg/mL (≈ 861 µM).
